{"source": "patent US20040171688A1", "about": "“Carboxylic acids and derivatives thereof and pharmaceutical compositions containing them” (priority 1997, published 2004)", "molecular_target": "T1, HNF-4α (Rattus norvegicus, UniProt P22449)", "T1 sequence (P22449 1-464 isoform P22449-2)": "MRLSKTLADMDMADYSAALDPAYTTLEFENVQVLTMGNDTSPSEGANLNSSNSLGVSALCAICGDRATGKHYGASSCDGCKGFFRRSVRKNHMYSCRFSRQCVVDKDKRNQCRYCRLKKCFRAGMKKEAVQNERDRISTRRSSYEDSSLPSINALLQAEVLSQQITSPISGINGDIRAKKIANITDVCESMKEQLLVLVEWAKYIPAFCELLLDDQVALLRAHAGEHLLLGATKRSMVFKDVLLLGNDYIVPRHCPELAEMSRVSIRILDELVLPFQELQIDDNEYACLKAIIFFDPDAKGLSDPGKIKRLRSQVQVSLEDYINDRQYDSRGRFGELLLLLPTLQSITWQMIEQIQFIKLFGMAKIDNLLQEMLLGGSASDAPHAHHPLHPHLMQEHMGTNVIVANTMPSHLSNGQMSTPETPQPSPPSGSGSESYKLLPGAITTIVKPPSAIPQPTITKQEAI", "assay": "In vitro transcription assay induced by His-HNF-4α with HeLa nuclear extract", "format": "biochemical", "set-up": "The full length HNF-4α1 cDNA cloned into 6His-pET11d vector was expressed in E.coli BL21 (DE3)plysS; 6His; made in house; host or cells: E. coli BL21 (DE3)plysS", "settings": "for HNF-4α transcriptional activity, agonist/antagonist character (summary): summary statement of Example 4", "experimental": "a. Representative experiments showing in vitro transcription of the test template in the presence of increasing concentrations of His-HNF-4I and in the absence (lanes 1-3, 7-9) or presence of 10 μM of added palmitoyl(16:0)-CoA (lanes 4-6) or stearoyl(18:0)-CoA (lanes 10,11) as indicated. Correctly initiated transcripts of the test and control templates are denoted by (→) and ? , respectively.\nb. HNF-4I-induced in vitro transcription in the absence (empty bars) or presence of 10 μM each of added palmitoyl(16:0)-CoA (filled bars) or stearoyl(18:0)-CoA (hatched bars). Fold transcription indicates the ratio of specific transcript produced by the test template over transcript from the control template normalized to the ratio observed without HNF-4a. The figure summarizes 5 independent experiments for each acyl-CoA. *-Significant as compared with the respective value in the absence of added ligand.\nReaction mixture contained 20 mM Hepes-KOH (pH 7.9), 5 mM MgCl2, 60 mM KCl, 8% glycerol, 2 mM DTT, 1 mM 3′-O-methyl-GTP, 10 units of T1RNase, 20 units of RNasin, 0.5 μg sonicated salmon sperm DNA and His-HNF-4α and test ligand as indicated. The mixture was preincubated for 30 min at 22° C. followed by adding 10 ng of pAdML200 control template consisting of the adenovirus major-late promoter (−400/+10) linked to a 200 bp G-less cassette and 200 ng of the test template consisting of three C3P copies of the apo CIII promoter sequence (−87/−66) upstream to a synthetic ovalbumin TATA box promoter in front of a 377 bp-G-less cassette. The mixture was further preincubated for 10 min at 22° C. followed by adding 40 μg of HeLa nuclear extract with additional preincubation for 30 min at 30° C. 0.5-mM ATP, 0.5 mM CTP, 25 μM UTP, and 10 μCi of [α-^32P]UTP (s.a. […], Amersham) were then added and the complete reaction mixture was incubated for 45 min at 30° C. in a final volume of 25 μl. The reaction was terminated by adding 175 μl of stop mix (0.1 M sodium acetate (pH 5.2), 10 mM EDTA, 0.1% SDS, 200 μg/ml tRNA) followed by phenol extraction and ethanol precipitation. RNA was resuspended in sample buffer containing 80% formamide and 10 mM Tris-HCl (pH 7.4) and separated on 5% polyacrylamide gel containing 7 M urea in TBE. Correctly initiated transcripts were quantitated by PhosphorImager analysis. The test DNA template was constructed by inserting into pC2AT19 plasmid a PCR-amplified oligonucleotide prepared by using the (C3P)3-TK-CAT plasmid as template and consisting of three copies of the C3P element of the Apo CIII promoter sequence (−87/−66) having an ECoRI and SSTI sites at the 5′ and 3′ ends, respectively. The resultant plasmid was cleaved with sphI and sacI and ligated to a synthetic oligonucleotide (5′-CGAGGTCCAC-[…]-3′) containing sequences of the HSV thymidine kinase promoter (−41/−29) and of the chicken ovalbumin promoter (−33/−21).\nThe effect of agonistic and antagonistic HNF-4α-ligands was further evaluated by analyzing the in vitro transcription rate, catalyzed by added HeLa nuclear extract and induced by recombinant HNF-4α, of a test template consisting of a 377 bp G-less cassette promoted by sequences of the HSV thymidine kinase and chicken ovalbumin promoters and enhanced by three C3P copies of the apo Clil gene promoter. Transcriptional activation by HNF-4α was evaluated in the presence and in the absence of added representative long chain fatty acyl-CoAs. […]"}
{"smiles": "CCCCCCCCCCCCCCCCCC(=O)SCCNC(=O)CCNC(=O)[C@H](O)C(C)(C)COP(=O)(O)OP(=O)(O)OC[C@H]1O[C@@H](n2cnc3c(N)ncnc32)[C@H](O)[C@@H]1OP(=O)(O)O", "note": "[Stearoyl(18:0)-CoA]", "values": [{"measurement": "effect on HNF-4α induced in vitro transcription", "setting": "10 μM added acyl-CoA (FIG. 3)", "result": "inhibited"}, {"measurement": "HNF-4α transcriptional activity, agonist/antagonist character (summary)", "result": "true antagonist"}]}
{"smiles": "CCCCCCCCCCCCCC(=O)SCCNC(=O)CCNC(=O)[C@H](O)C(C)(C)COP(=O)(O)OP(=O)(O)OC[C@H]1O[C@@H](n2cnc3c(N)ncnc32)[C@H](O)[C@@H]1OP(=O)(O)O", "note": "[myristoyl(14:0)-CoA, reference compound]", "values": [{"measurement": "HNF-4α transcriptional activity, agonist/antagonist character (summary)", "result": "activators"}]}
